These results are taken from patent publication US10935552B2, “Aie luminogens for visualization and treatment of cancer” (THE HONG KONG UNIVERSITY OF SCIENCE AND TECHNOLOGY, priority 2015, dated 2021).

In series [1] the test system is MCF-7 cells. The series can be described thus: Lysosomal imaging in MCF-7 cells, co-staining with LTR. It is filed as cell-based. As to the method:
The behavior of TPE-TMX in cellular settings was studied as compared to TMX. MCF-7 cells were incubated with 2 μM TPE-TMX and […] TMX for 24 hrs, respectively. The cells were then washed and directly observed under the microscope without fixation. […] However, the exact intracellular location of TMX cannot be confirmed by fluorescent microscopy because its emission wavelength is not in the range of the visible spectrum. Therefore, a series of commercial fluorescent markers were used to image drug delivery of TMX. […] On the other hand, TPE-TMX, without any aid of fluorescent dye, can be successfully monitored in the cells thanks to its intense blue emission. The controls display no emission under UV irradiation.
To further confirm the subcellular distribution of TPE-TMX, LTR was also used to co-stain MCF-7 cells with TPE-TMX. […] As expected, TPE-TMX is a specific fluorescent dye to visualize lysosomal organelle structures as well as monitor the drug release.

Series [2] has as its system ER+ breast cancer cells (MCF-7 cells). The series can be described thus: MTT cytotoxicity of TPE-TMX, MCF-7 cells. Format: cell-based. The procedure: (§1) For the rational molecular design of TPE-TMX, it is extremely critical that it can restore its therapeutic ability as TMX after the modification. To investigate its therapeutic performance, the cytotoxicity of TPE-TMX to a variety of cell lines was evaluated using a MTT assay (FIG. 33). […] Therefore, TPE-TMX may form a complex with receptor that can manifest selective accumulation in MCF-7 cells and lead to cell death.

In series [3] the test system is ER independent breast cancer cells (MDA-MB-231 cells). The series can be described thus: MTT cytotoxicity of TPE-TMX, MDA-MB-231 cells. Format: cell-based. The following applies: MDA-MB-231, up to 10 μM. As to the method: as §1
Series [4] concerns a variety of cell lines. Put plainly: MTT cytotoxicity of TPE-TMX, other cell lines. Format: cell-based. The following applies: up to 10 μM. As to the method:
as §1

For series [5], the system named is different cell lines. The series can be described thus: Fluorescence microscopy of different cell lines treated with TPE-TMX. Format: cell-based. An excerpt:
(§2) To examine this hypothesis, fluorescence microscopy of different cell lines treated with TPE-TMX was undertaken. […] Lysosome is an acidic enzyme enriched organelle responsible for digesting intracellular biomolecules, while TPE-TMX with a basic amino group is more favored to target the lysosomes in cells. Once the molecules are accumulated on the surface of lysosome, their intermolecular motions are restricted, which activates the AIE process and thus lights up the organelle.

In series [6] the test system is MCF-7 cells. The series can be described thus: Fluorescence microscopy and long-term tracing of MCF-7 cells treated with TPE-TMX. It is filed as cell-based.
Text: as §2
The whole cells exclude nuclei are highly emissive after the treatment of TPE-TMX for 192 hrs, which is proposed as autophagy. This mechanism is thought to be a degradation system that is mediated by a unique organelle called the autophagosome and then fuses with lysosome to form an autolysosome. Once the autolysosomes are formed, the cells become dysfunctional and eventually cause cell death. […] This is the first time that autophagy can be fluorescently monitored using a theranostic agent for breast cancer cells.

Series [7] relates to MCF-7 cells. The series can be described thus: Photo-bleaching resistance by continuous scanning of stained MCF-7 cells. Format: cell-based. The following applies: MCF-7, 2 μM 30 min, 50 scans, total irradiation 3 min, 0.1 mW. As to the method:
In order to determine the working mechanism of TPE-TMX to MCF-7 cells, probes with long-term tracking are highly pursued. To compare the photo-bleaching resistance between TPE-TMX and LTR, continuous scanning of the stained MCF-7 cells by UV irradiation was carried out and the PL intensity at each scan was recorded. These two sets of MCF-7 cells were first incubated in a medium for 24 hrs and then stained with TPE-TMX and LTR at 2 μM for 30 min, respectively. The excitation power from 405 nm and 561 nm channels of the microscope was unified as 0.1 mW. The initial fluorescence intensity for the dyes was normalized and the percentage of intensity loss was calculated.

In series [8] the test system is HeLa cells. Put plainly: Cancer cell imaging for HeLa cells (TTE, TFE, fl-TFE). It is filed as cell-based, human. The procedure:
(§3) Cell Culture. HeLa cells were cultured in MEM containing 10% FBS and 1% antibiotics (100 units/mL penicillin and 100 µg/mL streptomycin) in a 5% CO2 humidity incubator at 37° C. Cell Imaging. Lung cancer cell A549 were cultured in DMEM containing 10% FBS and antibiotics (100 units/mL penicillin and 100 µg/mL streptomycin) in a 5% CO2 humidity incubator at 37° C. Two different kind of cells were grown overnight on a 35 mm petri dish with a cover slip. The live cells were incubated with 10 μM of TTE for 15/30 mins, TFE for 30′ and fl-TFE for 30′ and 5 h (the last two have been tested only in HeLa cells). In a typical experiment, 2 μL of a 10 mM stock solution of TTE in DMSO were diluted to 1 mL with cell culture medium, followed by further dilution to desired concentration. The cells were imaged under a fluorescent microscope (BX41 Microscope) using same excitation and emission filters: excitation filter=330-385 nm, dichroic mirror=420 nm, and emission filter=400 nm long pass.
The HeLa cells were grown overnight on a 35 mm petri dish with a cover slip. The live cells were incubated with 10 μM of TTE for 30 mins, which are shown in FIG. 17A-B. The HeLa cells were incubated with 50 μM oleic acid for 6 hrs and then were co-stained by 10 μM TTE and 1 μg/mL for 15 mins.

Series [9] concerns Lung cancer cell A549. Put plainly: Cancer cell imaging for lung cancer cell A549 by TTE. It is filed as cell-based. The following applies: A549, 10 μM TTE, 15 mins. As to the method: as §3
The A549 cells were grown overnight on a 35 mm petri dish with a cover slip. The live cells were incubated with 10 μM of TTE for 30 mins. The A549 cells were incubated with 10 μM TTE and 1 μg/mL for 15 mins.

Consider `CN(C)CCOc1ccc(C(=C(c2ccccc2)c2ccccc2)c2ccccc2)cc1` [TPE-TMX], for which, in [1] (MCF-7, 2 μM 30 min, then LTR 15 min), the Subcellular distribution result is on record as “selectively stains lysosomes”. Further, the “Pearson correlation coefficient of co-localization with LTR (r)” value in series [1] (MCF-7, 2 μM TPE-TMX) is reported as 0.96. The “Cytotoxicity (therapeutic response) by MTT” value in series [2] is listed as “has only the therapeutic response to ER+ breast cancer cells (MCF-7 cells)”. The “Cell viability by MTT” value in [3] and in series [4] was “not dramatically altered” in each case. For the same compound, in series [5] (all tested cell lines), the Subcellular localisation result is reported as “localized on lysosomes in all tested cell lines”. Moreover, the Morphological effect entry in series [5] (other cell lines) is “no obvious morphological change”; in series [6] (MCF-7), “induces the formation of vacuole, lysosomal swelling and cell death”. The “Effect on cells in continuous monitoring” value in series [6] (MCF-7, 2 μM) was “induce vacuoles, lysosome swelling, and loss of the cell population”. Also, the “Fluorescence intensity in cells” value in series [6] (MCF-7 versus other cell lines) is on record as “more prominent in MCF-7 cells compared to the others”. In addition, the “Fluorescence of stained cells with increasing number of passages” value in [6] (long-term tracing) is “increases with increasing number of passages”. Besides, in [7], the PL signal loss entry is recorded as “no significant PL loss”.

As for `c1csc(C(=C(c2cccs2)c2cccs2)c2cccs2)c1` [TTE, TetraThienylEthene], in series [8] (10 μM, TTE in HeLa and A549, TFE and fl-TFE only in HeLa), the “Ability to enter cells as bioprobe” value is reported as “the only one able to enter inside the cells”. Besides, the “Organelle selectivity (overlap with BODIPY)” value is on record as “can selectively target lipid droplets” in [8] (HeLa, 50 μM oleic acid 6 hrs, 10 μM TTE, 15 mins) and “can selectively target lipid droplets” in series [9].
